# Laboratory results as given in PMC9837035 (Nature Communications, 2023).
# “And” between values parts separate entries of the source, which are not always exact repeats. Equal entries are not always repeated.
# Columns and labels:
# H3K9me2 in HUDEP-2 cells = assay: Western blotting of H3K9me2 in HUDEP-2 cells; assay type: cell-based, human; conditions: HUDEP-2, 4 days
# Description: Preparation of cell lysates and western blotting were performed as described previously. Protein from cells lysates in lysis buffer (50 mM Tris-HCl (pH 7.5), 150 mM NaCl, 5 mM EDTA, 0.1% NP-40, 1 mM dithiothreitol) were separated by sodium dodecyl sulfate–polyacrylamide gel electrophoresis (SDS-PAGE) and transferred to a polyvinylidene difluoride (PVDF) membrane (Millipore) by electroblotting. The membranes incubated with primary antibodies overnight at 4 °C and secondary antibodies for 1 h at room temperature. The immune complexes were detected with the Immobilon Western Chemiluminescent HRP Substrate (Millipore). Luminescence was analyzed on a FUSION SOLO S (Vilber). Western blot bands were visualized using Evolution Capt software (M&S Instruments Inc.). Primary antibodies used were anti-G9a (1:1000, CST, #3306), anti–α-tubulin (1:5000, Abcam, ab18251), anti-H3K9me2 (1:3000, Abcam, ab1220), anti-H3 (1:5000, Abcam, ab1791), anti-H3K27me3 (1:3000, Sigma, 07-449), anti-GLP (1:1000, CST, #35005), anti-FLAG (100 ng/ml, Fujifilm, 01422383), anti-His (1:5000, MBL, PM032), anti-BCL11A (1:1000, abcam, ab19487), anti-ZBTB7A (1:1000, CST, #50565), anti-CHD3 (1:1000, Novus Biologicals, NB100-60412), and anti-CHD4 (1:1000, abcam, ab240640). Uncropped scans of all of the blots are available in Source Data file.
# [1] = tested on: BGLT3 RNA in HUDEP-2 cells; assay: RT-qPCR of BGLT3 in HUDEP-2 cells; assay type: cell-based, human; conditions: for BGLT3 expression in HUDEP-2 cells: relative to DMSO = 1, replicate values; for BGLT3 expression: HUDEP-2
# Description: (§1) Total cellular RNA was prepared using the Tissue Total RNA Mini Kit (FAVORGEN), and cDNA was synthesized using ReverTra Ace Master Mix (TOYOBO). Expression of target genes was analyzed using THUNDERBIRD SYBR qPCR Mix (TOYOBO) on a CFX Connect Real Time System (Bio-Rad). The qPCR data were acquired on CFX Maestro (Bio-Rad). Primers are listed in Supplementary Table 10. GAPDH was used as a reference. Primers were purchased from INTEGRATED DNA TECHNOLOGIES or FASMAC.
# HUDEP-2 cells = assay: Cell viability assay (WST-8), HUDEP-2; assay type: cell-based, human; conditions: for cell viability in HUDEP-2 cells: control (0 μM) = 100; for cytotoxic effect on viability: HUDEP-2, 3 days
# Description: (§2) A WST-8 (2-(2-methoxy-4-nitrophenyl)-3-(4-nitrophenyl)-5-(2,4-disulfophenyl)-2H-tetrazolium) assay using a Cell Counting Kit-8 (DOJINDO) was performed to measure cell viability using an EnSpire microplate reader (PerkinElmer).
# [2] = tested on: β- and γ-globin genes in HUDEP-2 cells; assay: RT-qPCR of β- and γ-globin in HUDEP-2 cells; assay type: cell-based, human; conditions: for β-globin expression in HUDEP-2 cells / γ-globin expression in HUDEP-2 cells: relative to DMSO = 1, replicate values; for γ-globin mRNA level: HUDEP-2
# Description: as §1
# NSD3 = target: T1, NSD3 (Homo sapiens, UniProt Q9BZ95); assay: Radioisotope-based methyltransferase assay (selectivity); assay type: biochemical
# T1 construct: purchased Reaction Biology
# T1 sequence (Q9BZ95 1-1437): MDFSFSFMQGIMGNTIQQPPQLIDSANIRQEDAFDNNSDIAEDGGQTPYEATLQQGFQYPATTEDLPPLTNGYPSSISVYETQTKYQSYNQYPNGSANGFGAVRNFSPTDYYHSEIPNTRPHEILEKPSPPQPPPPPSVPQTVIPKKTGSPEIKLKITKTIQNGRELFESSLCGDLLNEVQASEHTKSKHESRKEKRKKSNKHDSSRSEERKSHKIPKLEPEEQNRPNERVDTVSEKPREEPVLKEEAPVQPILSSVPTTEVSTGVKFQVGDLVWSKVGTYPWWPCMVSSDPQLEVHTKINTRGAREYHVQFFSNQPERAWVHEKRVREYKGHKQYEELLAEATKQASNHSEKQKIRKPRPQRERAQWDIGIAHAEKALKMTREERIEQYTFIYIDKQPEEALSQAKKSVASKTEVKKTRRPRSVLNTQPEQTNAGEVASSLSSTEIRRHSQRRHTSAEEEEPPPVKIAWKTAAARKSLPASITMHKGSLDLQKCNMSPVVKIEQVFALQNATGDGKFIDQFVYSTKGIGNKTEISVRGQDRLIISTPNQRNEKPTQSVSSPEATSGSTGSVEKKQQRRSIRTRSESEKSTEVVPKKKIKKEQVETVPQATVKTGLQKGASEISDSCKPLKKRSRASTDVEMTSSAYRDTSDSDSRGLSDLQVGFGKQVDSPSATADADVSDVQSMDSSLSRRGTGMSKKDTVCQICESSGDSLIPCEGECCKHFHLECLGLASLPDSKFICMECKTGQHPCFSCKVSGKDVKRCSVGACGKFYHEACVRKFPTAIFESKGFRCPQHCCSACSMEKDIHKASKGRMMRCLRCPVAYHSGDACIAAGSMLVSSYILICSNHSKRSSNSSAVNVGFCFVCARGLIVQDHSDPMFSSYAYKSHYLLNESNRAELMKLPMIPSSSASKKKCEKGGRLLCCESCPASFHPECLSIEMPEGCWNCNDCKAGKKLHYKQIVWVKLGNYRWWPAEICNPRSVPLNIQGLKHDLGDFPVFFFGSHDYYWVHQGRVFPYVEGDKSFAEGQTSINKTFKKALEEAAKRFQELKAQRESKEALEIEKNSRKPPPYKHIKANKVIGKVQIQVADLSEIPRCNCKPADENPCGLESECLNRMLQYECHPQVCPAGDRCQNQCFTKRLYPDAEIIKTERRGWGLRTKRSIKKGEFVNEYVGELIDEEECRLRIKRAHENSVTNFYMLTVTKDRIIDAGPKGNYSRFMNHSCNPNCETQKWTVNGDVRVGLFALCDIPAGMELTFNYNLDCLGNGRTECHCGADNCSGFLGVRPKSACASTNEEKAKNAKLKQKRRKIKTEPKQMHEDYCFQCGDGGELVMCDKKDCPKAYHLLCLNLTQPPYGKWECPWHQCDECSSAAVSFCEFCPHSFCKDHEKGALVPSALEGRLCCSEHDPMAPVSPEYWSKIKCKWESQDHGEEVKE
# ASH1L = target: T2, ASH1L (Homo sapiens, UniProt Q9NR48); assay: as above; assay type: biochemical; conditions: IC50, ASH1L
# T2 construct: purchased Reaction Biology
# PRDM9 = target: T3, PRDM9 (Homo sapiens, UniProt Q9NQV7); assay: as above; assay type: biochemical
# T3 construct: purchased Reaction Biology
# T3 sequence (Q9NQV7 whole entry): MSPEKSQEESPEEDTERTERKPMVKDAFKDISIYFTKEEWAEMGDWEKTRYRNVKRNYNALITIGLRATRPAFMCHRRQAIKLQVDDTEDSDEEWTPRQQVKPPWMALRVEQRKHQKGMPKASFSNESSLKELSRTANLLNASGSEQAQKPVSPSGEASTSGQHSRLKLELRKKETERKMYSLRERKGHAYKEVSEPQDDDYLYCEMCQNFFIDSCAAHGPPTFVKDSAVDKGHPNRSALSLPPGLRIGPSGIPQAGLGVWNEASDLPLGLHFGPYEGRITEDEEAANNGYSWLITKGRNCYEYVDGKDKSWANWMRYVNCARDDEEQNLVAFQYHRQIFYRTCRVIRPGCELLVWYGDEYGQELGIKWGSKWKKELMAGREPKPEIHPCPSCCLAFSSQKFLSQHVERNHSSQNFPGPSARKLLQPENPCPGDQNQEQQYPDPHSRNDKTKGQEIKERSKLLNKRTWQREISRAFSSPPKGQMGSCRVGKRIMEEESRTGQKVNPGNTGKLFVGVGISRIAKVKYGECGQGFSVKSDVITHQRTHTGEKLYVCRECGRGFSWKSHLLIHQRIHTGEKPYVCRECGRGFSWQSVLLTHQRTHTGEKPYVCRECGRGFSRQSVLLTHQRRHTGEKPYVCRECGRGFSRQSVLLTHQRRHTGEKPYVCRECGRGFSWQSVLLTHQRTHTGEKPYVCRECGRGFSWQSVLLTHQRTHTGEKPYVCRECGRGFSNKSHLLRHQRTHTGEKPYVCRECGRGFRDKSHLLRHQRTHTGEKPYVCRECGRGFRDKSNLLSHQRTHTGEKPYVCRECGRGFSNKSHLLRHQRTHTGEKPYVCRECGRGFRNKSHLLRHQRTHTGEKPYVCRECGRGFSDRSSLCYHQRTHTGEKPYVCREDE
# mice = assay: Mouse acute toxicity assay, survival; assay type: in vivo; conditions: intravenous, 2-week observation
# Description: All animal studies were approved by the Institutional Committee for Animal Experiments of the Institute of Microbial Chemistry, and were performed in accordance with relevant guidelines and regulations to minimize animal suffering. Four-week-old female ICR mice were purchased from Charles River Breeding Laboratories (Yokohama, Japan) and maintained in a specific pathogen-free barrier facility. […] Samples were dissolved in saline containing 10% DMSO and 1% Tween 80 and injected intravenously into mice.
# [3] = tested on: rat myoblast cell line H9c2; assay: Cell viability assay (WST-8), H9c2; assay type: cell-based; conditions: control (0 μM) = 100
# Description: as §2
# [4] = Cell viability assay (WST-8), H9c2; assay type: cell-based, rat; conditions: rat, H9c2 myoblast cells, control (0 μM) = 100
# Description: as §2
# [5] = Cell viability assay (WST-8), HUDEP-2; assay type: cell-based, human; conditions: human, HUDEP-2 cells, control (0 μM) = 100
# Description: as §2
smiles,measurement,setting,value
COc1cc2c(NC3CCN(C)CC3)cc(-c3ccc(C)o3)nc2cc1OCCCN1CCCC1 [CM-272],cellular H3K9me2 levels,H3K9me2 in HUDEP-2 cells,reduction of H3K9me2 levels
same,BGLT3 expression in HUDEP-2 cells,[1]; 0.01 μM,1.264 and 1.918 and 0.9309
same,BGLT3 expression in HUDEP-2 cells,[1]; 0.03 μM,0.9121 and 1.179 and 0.9824
same,BGLT3 expression in HUDEP-2 cells,[1]; 0.1 μM,0.6878 and 0.8395 and 1.055
same,BGLT3 expression in HUDEP-2 cells,[1]; 0.3 μM,4.167 and 3.251 and 2.85
same,BGLT3 expression in HUDEP-2 cells,[1]; 1 μM,9.88 and 9.285 and 7.11
same,BGLT3 expression,[1],induced the expression of both BGLT3 and γ-globin
same,cell viability in HUDEP-2 cells,HUDEP-2 cells; 0.123457 μM,108.704 and 95.321 and 98.9654
same,cytotoxic effect on viability,HUDEP-2 cells,severe cell toxicity
same,β-globin expression in HUDEP-2 cells,[2]; 0.01 μM,1.0071 and 1.036 and 1.465
same,γ-globin expression in HUDEP-2 cells,[2]; 0.01 μM,1.193 and 1.0465 and 1.534
same,β-globin expression in HUDEP-2 cells,[2]; 0.03 μM,0.9553 and 1.237 and 1.08
same,γ-globin expression in HUDEP-2 cells,[2]; 0.03 μM,1.464 and 1.528 and 1.418
same,β-globin expression in HUDEP-2 cells,[2]; 0.1 μM,1.5931 and 1.663 and 1.768
same,γ-globin expression in HUDEP-2 cells,[2]; 0.1 μM,5.304 and 3.7722 and 4.868
same,β-globin expression in HUDEP-2 cells,[2]; 0.3 μM,1.078 and 1.725 and 1.22
same,γ-globin expression in HUDEP-2 cells,[2]; 0.3 μM,5.583 and 7.681 and 5.641
same,β-globin expression in HUDEP-2 cells,[2]; 1 μM,1.093 and 1.321 and 1.148
same,γ-globin expression in HUDEP-2 cells,[2]; 1 μM,3.245 and 3.178 and 3.329
same,γ-globin mRNA level,[2],induced the expression of both BGLT3 and γ-globin
"CN1C(=O)[C@@]23C[C@]4([C@]56C[C@@]78SS[C@@](CO)(C(=O)N7[C@H]5Nc5ccccc56)N(C)C8=O)c5ccccc5N[C@@H]4N2C(=O)[C@]1(CO)SS3 [Chaetocin, reference compound]",IC50,"NSD3; IC50, NSD3, 1 μM SAM",150 nM
same,IC50,"NSD3; IC50, NSD3, RK-701 in duplicate",150 nM
same,IC50,ASH1L; 1 μM SAM,93 nM
same,IC50,ASH1L; RK-701 in duplicate,92.8 nM
same,IC50,"PRDM9; IC50, PRDM9, 1 μM SAM",13400 nM
same,IC50,"PRDM9; IC50, PRDM9, RK-701 in duplicate",13400 nM
COc1cc2c(NC3CCN(C(C)C)CC3)nc(C3CCCCC3)nc2cc1OCCCN1CCCC1 [UNC0638],cellular H3K9me2 levels,H3K9me2 in HUDEP-2 cells,reduction of H3K9me2 levels
same,Number of alive mice,mice; 1.5625 mg/kg,3/3
same,Number of alive mice,mice; 3.125 mg/kg,3/3
same,Number of alive mice,mice; 6.25 mg/kg,0/3
same,Number of alive mice,mice; 12.5 mg/kg,0/3
same,Number of alive mice,mice; 25 mg/kg,0/3
same,cell viability in H9c2 cells,[3]; 0.039 μM,83.333 and 114.948 and 83.569
same,cell viability in H9c2 cells,[3]; 0.156 μM,95.490 and 88.952
same,cell viability in H9c2 cells,[3]; 0.625 μM,87.887 and 83.853
same,viability at 0.156 μM,[4]; 0.156 μM,90.4%
same,viability at 0.625 μM,[4]; 0.625 μM,92.4%
same,BGLT3 expression in HUDEP-2 cells,[1]; 0.01 μM,1.173 and 1.9605 and 1.436
same,BGLT3 expression in HUDEP-2 cells,[1]; 0.03 μM,1.045 and 1.983 and 1.934
same,BGLT3 expression in HUDEP-2 cells,[1]; 0.1 μM,1.162 and 3.201 and 2.863
same,BGLT3 expression in HUDEP-2 cells,[1]; 0.3 μM,3.578 and 5.267 and 5.078
same,BGLT3 expression,[1],induced the expression of both BGLT3 and γ-globin
same,cell viability in HUDEP-2 cells,HUDEP-2 cells; 0.00457247 μM,93.1765 and 99.8296
same,cell viability in HUDEP-2 cells,HUDEP-2 cells; 0.0137174 μM,92.549 and 98.1261
same,cell viability in HUDEP-2 cells,HUDEP-2 cells; 0.0411523 μM,91.9216 and 96.0818
same,cell viability in HUDEP-2 cells,HUDEP-2 cells; 0.123457 μM,90.9804 and 93.0153
same,cell viability in HUDEP-2 cells,HUDEP-2 cells; 0.37037 μM,82.1961 and 79.7274
same,cell viability in HUDEP-2 cells,HUDEP-2 cells; 1.11111 μM,35.1373 and 35.4344
same,cell viability in HUDEP-2 cells,HUDEP-2 cells; 10 μM,4.078 and 3.407
same,cytotoxic effect on viability,HUDEP-2 cells,severe cell toxicity
same,viability at 0.00457247 μM,[5]; 0.00457247 μM,97.7%
same,viability at 0.0137174 μM,[5]; 0.0137174 μM,96.8%
same,viability at 0.0411523 μM,[5]; 0.0411523 μM,103%
same,viability at 0.123457 μM,[5]; 0.123457 μM,98.7%
same,viability at 0.37037 μM,[5]; 0.37037 μM,83.3%
same,viability at 1.11111 μM,[5]; 1.11111 μM,36%
same,viability at 10 μM,[5]; 10 μM,2.19%
same,β-globin expression in HUDEP-2 cells,[2]; 0.01 μM,1.0792 and 0.9641 and 1.119
same,γ-globin expression in HUDEP-2 cells,[2]; 0.01 μM,2.161 and 1.8663 and 1.942
same,β-globin expression in HUDEP-2 cells,[2]; 0.03 μM,0.8727 and 0.8955 and 0.9796
same,γ-globin expression in HUDEP-2 cells,[2]; 0.03 μM,2.931 and 2.632 and 2.938
same,β-globin expression in HUDEP-2 cells,[2]; 0.1 μM,0.7919 and 0.6648 and 0.9576
same,γ-globin expression in HUDEP-2 cells,[2]; 0.1 μM,3.187 and 2.85 and 3.299
same,β-globin expression in HUDEP-2 cells,[2]; 0.3 μM,0.6454 and 0.4522 and 0.612
same,γ-globin expression in HUDEP-2 cells,[2]; 0.3 μM,4.136 and 2.987 and 3.803
same,γ-globin mRNA level,[2],induced the expression of both BGLT3 and γ-globin
